Assay results taken from the supplement of paper PMC10307832.

How the values were obtained:
Assay in all cases: relative viability (nuclei count vs DMSO), 5 days (fraction); higher = more cells survive
[1] = compound: C1CC2=C(C1)C=C(C=C2)OC3=NC(=C4C(=N3)N(C=N4)CC5=CC=C(C=C5)C6=CC=CC=C6)N[C@@H](CC7=CC=CC=C7)CO [QS11] + CC(=O)Nc1cccc(-n2c(=O)n(C3CC3)c(=O)c3c(Nc4ccc(I)cc4F)n(C)c(=O)c(C)c32)c1 [Trametinib] (partner 0.02 µM)
Procedure, shortened: (§1)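 Lung cancer cell lines in 1536-well plates got either a single drug or a fixed anchor-drug dose together with five library-drug doses (not always all listed) in √10 steps, by pin tool, on the day after seeding. Nuclei were counted after 5 days, and relative viability is the treated-to-vehicle ratio of nuclei counts. Values are medians of duplicate plates.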

[2] = compound: C1CC2=C(C1)C=C(C=C2)OC3=NC(=C4C(=N3)N(C=N4)CC5=CC=C(C=C5)C6=CC=CC=C6)N[C@@H](CC7=CC=CC=C7)CO [QS11] + C[C@@H](Oc1cc(-c2cnn(C3CCNCC3)c2)cnc1N)c1c(Cl)ccc(F)c1Cl [Crizotinib] (partner 1 µM)
Procedure, shortened: as §1

[3] = compound: CC1=C(C=C(C=C1)NC(=O)C2=CC(=CC=C2)C(C)(C)C#N)NC3=CC4=C(C=C3)N=CN(C4=O)C [AZ628] + CS(=O)(=O)N1CCN(Cc2cc3nc(-c4cccc5[nH]ncc45)nc(N4CCOCC4)c3s2)CC1 [Pictilisib] (partner 1 µM)
Procedure, shortened: as §1

[4] = compound: CC1=C(C=C(C=C1)NC(=O)C2=CC(=CC=C2)C(C)(C)C#N)NC3=CC4=C(C=C3)N=CN(C4=O)C [AZ628] + O=C(c1cc(Cc2n[nH]c(=O)c3ccccc23)ccc1F)N1CCN(C(=O)C2CC2)CC1 [Olaparib] (partner 8 µM)
Procedure, shortened: as §1

Cell Line	relative viability ([1]; first compound 0.08 µM)	relative viability ([1]; first compound 0.253 µM)	relative viability ([1]; first compound 0.8 µM)	relative viability ([1]; first compound 2.53 µM)	relative viability ([1]; first compound 8 µM)	relative viability ([2]; first compound 0.08 µM)	relative viability ([2]; first compound 0.253 µM)	relative viability ([2]; first compound 0.8 µM)	relative viability ([2]; first compound 2.53 µM)	relative viability ([2]; first compound 8 µM)	relative viability ([3]; first compound 0.08 µM)	relative viability ([3]; first compound 0.253 µM)	relative viability ([3]; first compound 0.8 µM)	relative viability ([3]; first compound 2.53 µM)	relative viability ([3]; first compound 8 µM)	relative viability ([4]; first compound 0.08 µM)	relative viability ([4]; first compound 0.253 µM)	relative viability ([4]; first compound 0.8 µM)	relative viability ([4]; first compound 2.53 µM)	relative viability ([4]; first compound 8 µM)
UMC-11	0.603	0.548	0.618	0.775	0.898	0.724	0.616	0.653	0.679	0.686	0.976	0.805	0.845	0.752	0.76	0.393	0.357	0.291	0.344	0.331
LCLC-103H	0.705	0.681		0.68	0.595	1.01	1.08	0.808	1	1.08	0.554	0.587	0.632	0.55	0.583	0.797	0.77	0.761	0.779	0.769
LU99A	0.532	0.626	0.517	0.5	0.533	0.554	0.586	0.544	0.446	0.385	0.274	0.306	0.362	0.331	0.205	0.269	0.255	0.272	0.296	0.214
LXF-289	0.671	0.711	0.583	0.621	0.629	0.814	0.807	0.678	0.687	0.617	0.779	0.712	0.754	0.654	0.401	1.13	1.01	0.922	1.08	0.756
EPLC-272H		0.32	0.3	0.28	0.3	0.861	0.962	1.03	0.835	1.13	0.273	0.232	0.236	0.266	0.231	0.492	0.663	0.603	0.568	0.452
LOU-NH91	0.797	0.742	0.743	0.819	0.767	0.713	0.709		0.694	0.744	0.582	0.491	0.492	0.501	0.452	0.935	0.94	0.965	0.936	0.764
HCC-44	1.19	0.908	0.599	1.02	1.02	0.868	0.729	0.577	0.688	0.519	0.547	0.512	0.427	0.354	0.286	1.01	0.999	0.977	0.972	0.974
NCI-H1651	0.855	0.887	0.761	0.856	0.922	0.888	0.95	0.79	0.903	0.899	0.698	0.685	0.587	0.537	0.599	0.171	0.186	0.172	0.184	0.191
NCI-H1915	0.292	0.292		0.288	0.309	0.926	1.13		0.824	0.815	0.822	0.67	0.693	0.493	0.313	0.256	0.229	0.232	0.26	0.168
NCI-H2009	0.242	0.32	0.24	0.279	0.256	1.02	1.09	0.882	1.03	0.791	0.512	0.311	0.291	0.277	0.226	0.711	0.778	0.862	0.789	0.461
COR-L 105	0.433	0.424	0.414	0.415	0.445	1.04	0.735	0.616	0.618	0.702	0.466	0.418	0.384	0.353	0.334	0.754	0.83	0.704	0.684	0.816
ABC-1						0.942	1.18	0.959	0.913	0.912	0.764	0.828	0.677	0.643	0.486	0.987	0.712	0.868	0.508	0.732
NCI-H1793	0.491	0.392	0.408	0.469	0.759						0.345	0.202	0.32	0.275	0.196	0.971	0.805	0.717	0.819	0.445
NCI-H1792		0.514	0.39	0.312	0.306		1.06	0.662	1.11	1.33	0.251	0.296	0.212	0.223	0.149	0.508	0.332	0.382	0.293	0.26
ChaGo-K-1		0.984	0.972	0.886	0.931		1.24	1.26	0.957	1.23	0.889		0.474	0.756	0.743	0.456	0.389	0.422	0.452	0.453
NCI-H2342	0.775	0.769	0.838	0.88	0.743											0.447	0.401	0.479	0.449	0.431
NCI-H1975	0.329	0.246	0.328	0.424	0.327	1.08	1.03	0.853	1.16	0.817	0.309	0.285	0.29	0.277	0.206	0.613	0.674	0.616	0.749	0.392
